Assay in all cases: DTP human tumour cell line panel, 48 h
For assay [1], the system named is DU-145.
Assay [2] deals with EKVX.
Assay [3] deals with HCT-15.
For assay [4], the system named is KM12.
The test system of assay [5] is MDA-MB-231.
The test system of assay [6] is MOLT-4.
The test system of assay [7] is NCI-H460.
Assay [8] concerns NCI/ADR-RES.
Assay [9] deals with OVCAR-3.
Assay [10] has as its system OVCAR-8.
Assay [11] deals with SF-295.
The subject of assay [12] is SN12C.
Assay [13] concerns SNB-19.
For assay [14], the system named is SNB-75.
Assay [15] relates to SW-620.
Assay [16] relates to U-251.
Assay [17] relates to UACC-62.
Assay [18] deals with SK-MEL-2.

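Where inhibition never reached the appropriate level, the endpoint shown equals the highest concentration tested. Otherwise, values were interpolated linearly from a five-concentration, 48-hour dose response in 96-well plates. Here, GI50 denotes the concentration required for 50% inhibition of growth.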 Activity calls are given as the source filed them. Rule as the data show it: active = GI50 up to about 1.1 µM and inactive = higher.

What is called GI50 is the concentration that inhibits growth by half. Take `Cc1c2c(nc3ccccc13)C(=O)c1cccnc1C2=O`: the GI50 was 21.6 µM (inactive) in assay [1]; 20 µM (inactive) in assay [2]; 10.9 µM in [3]; 14.9 µM (inactive) in assay [4]; 8.34 µM (inactive) in [5]; 9.71 µM (inactive) in [6]. Besides, the GI50 in [7] is 1.96 µM (inactive); in assay [8] it was 27.2 µM (inactive); in [9] it was 11.7 µM (inactive); in assay [10], 16.8 µM (inactive); in assay [11], 12.4 µM (inactive); in assay [12] it was 5.79 µM (inactive). For the same compound, the GI50 was 16.3 µM (inactive) in assay [13]; 11.1 µM (inactive) in assay [14]; 12.1 µM (inactive) in assay [15]; 10.8 µM (inactive) in assay [16]; 3.15 µM (inactive) in [17].

For the compound `O=C(CC(C(=O)c1ccco1)c1ccsc1)c1ccco1` (stereo not given), the GI50 was > 100 µM (inactive) in assay [1]; > 100 µM (inactive) in assay [2]; > 100 µM in [3]; > 100 µM (inactive) in assay [4]; 56.8 µM (inactive) in assay [5]; 37.4 µM (inactive) in assay [6]. The GI50 was 71.1 µM (inactive) in assay [7]; 38.6 µM (inactive) in assay [8]; 91.2 µM (inactive) in assay [9]; > 100 µM (inactive) in assay [10]; > 100 µM (inactive) in assay [11]; > 100 µM (inactive) in assay [12]. The GI50 was 47 µM (inactive) in [14], > 100 µM (inactive) in [15], > 100 µM (inactive) in assay [16] and 90.4 µM (inactive) in assay [17].

As for `CCN1/C(=C/C#C/C(C)=C\c2sc3ccc(Cl)cc3[n+]2CC)Sc2ccc(Cl)cc21`, the GI50 is 3.68 µM (inactive) in assay [1]; 4.25 µM (inactive) in assay [2]; 4.61 µM in [3]; 3.1 µM (inactive) in [4]; 5.93 µM (inactive) in assay [5]; 3.02 µM (inactive) in assay [7]. The GI50 is 15.7 µM (inactive) in [8]; 3.24 µM (inactive) in assay [10]; 3.4 µM (inactive) in assay [11]; 1.98 µM (inactive) in assay [18]; 3.57 µM (inactive) in assay [12]; 4.09 µM (inactive) in assay [13]. The GI50 was 2.61 µM (inactive) in [14], 2.43 µM (inactive) in assay [15], 3.3 µM (inactive) in assay [16] and 3.32 µM (inactive) in assay [17].

On to `CC1CC(=O)N(N(C)C)C2(C#N)C(=O)N=C(N)C12C#N` (stereo not given), for which the GI50 in assay [1] is > 100 µM (inactive); in [2], > 100 µM (inactive); in [3], > 100 µM; in assay [4], > 100 µM (inactive); in assay [5] it was > 100 µM (inactive); in [6] it was 36.7 µM (inactive). For the same compound, the GI50 in [8], in assay [10], in [11], in assay [18], in [12] and in assay [13] was > 100 µM (inactive) throughout. Moreover, the GI50 in [14] was > 100 µM (inactive); in assay [15], 35.4 µM (inactive); in assay [16] it was > 100 µM (inactive); in assay [17], 35.8 µM (inactive).

Consider `CC(C)=CCC12Cc3ccc(O)cc3C(C(C)CN1)C2C` (stereo not given), for which the GI50 was > 100 µM (inactive) in assay [1]; > 100 µM (inactive) in [2]; 72.1 µM in assay [3]; > 100 µM (inactive) in assay [4]; > 100 µM (inactive) in assay [5]; 52 µM (inactive) in [6]. In addition, the GI50 in assay [7] was 52.5 µM (inactive); in assay [8], > 100 µM (inactive); in assay [10], > 100 µM (inactive); in assay [11] it was 65.2 µM (inactive); in assay [12], > 100 µM (inactive); in assay [13] it was > 100 µM (inactive). Also, the GI50 was 99.5 µM (inactive) in assay [14], > 100 µM (inactive) in assay [15], 83.4 µM (inactive) in [16] and > 100 µM (inactive) in assay [17].

For `CC(=O)NC1C(OCc2ccccc2)OC(CO)C(O)C1OCC(=O)N[C@@H](C)C(=O)N[C@H](CCC(=O)NCCNc1ccc([N+](=O)[O-])c2[nH]c3ccccc3c(=O)c12)C(N)=O` (stereo not given in full), the GI50 in [1] was 33.4 µM (inactive); in [2], 20.8 µM (inactive); in assay [3], 13.5 µM; in assay [4], 20.1 µM (inactive); in assay [5], 28.1 µM (inactive); in assay [7], 8.99 µM (inactive). Also, the GI50 in [8] is 21.6 µM (inactive); in assay [9], 36.7 µM (inactive); in assay [10], 18.2 µM (inactive); in assay [11], 37.4 µM (inactive); in assay [12] it was 27.4 µM (inactive); in assay [13], 23 µM (inactive). Also, the GI50 in assay [14] is 22.8 µM (inactive); in [15], 7.74 µM (inactive); in assay [16], 29.5 µM (inactive); in assay [17], 18.7 µM (inactive).

Take `O=[N+]([O-])c1cccc(/C=N/N=c2\ccc3ccccc3[nH]2)c1O`: the GI50 in assay [1] is 2.26 µM (inactive); in assay [2] it was 1.48 µM (inactive); in assay [3], 0.146 µM; in [4] it was 1.87 µM (inactive); in assay [5], 2.78 µM (inactive); in [6], 0.83 µM (active). For the same compound, the GI50 in assay [7] is 0.448 µM (active); in assay [8], 0.151 µM (active); in [9], 0.185 µM (active); in assay [10], 2.21 µM (inactive); in assay [11] it was 1.01 µM (active); in assay [18], 4.4 µM (inactive). For the same compound, the GI50 in assay [12] was 1.53 µM (inactive); in assay [13] it was 4.92 µM (inactive); in assay [15], 0.632 µM (active); in [16], 1.11 µM (active); in assay [17], 1.43 µM (inactive).

As to `CCCc1nc(Cl)c(Cl)c(Cl)n1`, the GI50 in assay [1] is 35 µM (inactive); in assay [2], 21.4 µM (inactive); in assay [3] it was 15.8 µM; in assay [4] it was 38.6 µM (inactive); in assay [5] it was 19.3 µM (inactive); in assay [6], 12.4 µM (inactive). Also, the GI50 in assay [7] was 38.9 µM (inactive); in assay [8], 27 µM (inactive); in assay [9], 6.64 µM (inactive); in assay [10], 18.7 µM (inactive); in [11], > 60.4 µM (inactive); in assay [12], 19.6 µM (inactive). In addition, the GI50 in [13] was 62.1 µM (inactive); in assay [14] it was 4.28 µM (inactive); in assay [15], 14.8 µM (inactive); in assay [16], 14.7 µM (inactive); in assay [17], 36.5 µM (inactive).

For `Cc1nc(N)c(N2CCN(Cc3ccccc3)CC2)c(O)n1`, the GI50 is > 100 µM (inactive) in [1]; > 100 µM (inactive) in assay [2]; > 100 µM in assay [3]; > 100 µM (inactive) in assay [4]; > 100 µM (inactive) in assay [5]; > 100 µM (inactive) in assay [6]. The GI50 in [7], in assay [8], in assay [9], in assay [10], in [11] and in [18] was > 100 µM (inactive) each time. Further, the GI50 in [12], in [13], in assay [15] and in assay [16] was > 100 µM (inactive) throughout.

Consider `Cn1c(-c2cccs2)cc(-c2ccsc2)c1-c1cccs1`, for which the GI50 is 87.1 µM (inactive) in [1]; 10.2 µM (inactive) in assay [2]; 88.9 µM in assay [3]; > 100 µM (inactive) in assay [4]; 99.1 µM (inactive) in assay [5]; 55.7 µM (inactive) in assay [6]. Moreover, the GI50 in assay [7] is 48.1 µM (inactive); in assay [8], > 100 µM (inactive); in assay [9], 76.7 µM (inactive); in [10] it was > 100 µM (inactive); in [11], > 100 µM (inactive); in assay [12], > 100 µM (inactive). For the same compound, the GI50 in assay [13] is > 100 µM (inactive); in [14], 62.1 µM (inactive); in [15] it was > 100 µM (inactive); in assay [16], > 100 µM (inactive); in assay [17] it was 42.6 µM (inactive).

For `CC(CO)CCNc1ncnc2c1ncn2CCC(=O)OC(C)(C)C` (stereo not given), the GI50 in assay [1], in [2], in assay [4], in assay [5], in [6] and in assay [7] was > 100 µM (inactive) throughout. Besides, the GI50 in assay [8], in [9], in assay [10], in [11], in assay [12] and in [13] was > 100 µM (inactive) throughout. Moreover, the GI50 in assay [14], in assay [15] and in assay [17] was > 100 µM (inactive) in each case.

`Cc1nc(C)c(N2CCN(CN)CC2)c(O)n1`: the GI50 in assay [1] is > 100 µM (inactive); in assay [2] it was > 100 µM (inactive); in [3], > 100 µM; in assay [4], > 100 µM (inactive); in assay [5], > 100 µM (inactive); in [6], > 100 µM (inactive). Besides, the GI50 in assay [7], in assay [8], in [9], in assay [10], in assay [11] and in assay [12] was > 100 µM (inactive) in each case. Besides, the GI50 in assay [13] was > 100 µM (inactive); in assay [15], > 100 µM (inactive); in assay [16], 56.8 µM (inactive); in assay [17], > 100 µM (inactive).

These data come from ChEMBL document CHEMBL1201862, “PubChem BioAssay data set” (2004).
